Results reported in article PMC5068113 (Pharmacognosy Magazine, 2016).
In brackets after ≈: the same amount, converted by molar mass.

Tests used:
Assay in all cases: CYP inhibition by substrate-cocktail method in HLM
Format in all cases: in vitro ADME
human CYP2C8 = target: T1, human CYP2C8 (Homo sapiens, UniProt P10632)
T1 sequence (P10632 1-490): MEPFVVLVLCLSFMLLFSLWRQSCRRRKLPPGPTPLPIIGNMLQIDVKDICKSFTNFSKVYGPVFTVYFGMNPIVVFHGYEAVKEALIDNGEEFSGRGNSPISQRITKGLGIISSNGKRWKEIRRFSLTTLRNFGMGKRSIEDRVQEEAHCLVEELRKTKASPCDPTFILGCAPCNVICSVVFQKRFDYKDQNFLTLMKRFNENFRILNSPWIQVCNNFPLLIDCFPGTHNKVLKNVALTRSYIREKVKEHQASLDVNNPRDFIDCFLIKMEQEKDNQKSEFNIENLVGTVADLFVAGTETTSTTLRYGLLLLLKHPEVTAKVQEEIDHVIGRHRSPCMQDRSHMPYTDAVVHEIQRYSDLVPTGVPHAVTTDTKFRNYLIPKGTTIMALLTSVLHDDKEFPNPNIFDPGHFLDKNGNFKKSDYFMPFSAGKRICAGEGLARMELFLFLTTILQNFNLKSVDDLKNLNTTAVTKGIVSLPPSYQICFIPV

CYP2C9 = CYP2C9 (Homo sapiens, UniProt P11712); conditions: human liver microsomes, pH 7.4, probe diclofenac
Chain of CYP2C9 (P11712 whole entry): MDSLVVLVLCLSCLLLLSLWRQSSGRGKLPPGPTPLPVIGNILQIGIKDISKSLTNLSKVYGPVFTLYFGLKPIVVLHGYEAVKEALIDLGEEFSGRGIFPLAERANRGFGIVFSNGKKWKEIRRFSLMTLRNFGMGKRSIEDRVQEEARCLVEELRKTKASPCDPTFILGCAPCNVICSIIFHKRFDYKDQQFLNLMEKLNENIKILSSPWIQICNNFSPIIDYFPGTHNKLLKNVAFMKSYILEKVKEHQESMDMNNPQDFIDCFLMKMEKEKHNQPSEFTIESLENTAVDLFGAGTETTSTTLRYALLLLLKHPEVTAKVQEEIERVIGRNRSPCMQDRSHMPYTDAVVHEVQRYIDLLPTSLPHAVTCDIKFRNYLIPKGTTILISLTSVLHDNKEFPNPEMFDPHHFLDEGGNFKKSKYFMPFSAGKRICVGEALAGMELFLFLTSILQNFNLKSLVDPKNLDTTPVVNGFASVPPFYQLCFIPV

CYP2D6 = CYP2D6 (Homo sapiens, UniProt P10635); conditions: human liver microsomes, pH 7.4, probe dextromethorphan
Chain of CYP2D6 (P10635 whole entry): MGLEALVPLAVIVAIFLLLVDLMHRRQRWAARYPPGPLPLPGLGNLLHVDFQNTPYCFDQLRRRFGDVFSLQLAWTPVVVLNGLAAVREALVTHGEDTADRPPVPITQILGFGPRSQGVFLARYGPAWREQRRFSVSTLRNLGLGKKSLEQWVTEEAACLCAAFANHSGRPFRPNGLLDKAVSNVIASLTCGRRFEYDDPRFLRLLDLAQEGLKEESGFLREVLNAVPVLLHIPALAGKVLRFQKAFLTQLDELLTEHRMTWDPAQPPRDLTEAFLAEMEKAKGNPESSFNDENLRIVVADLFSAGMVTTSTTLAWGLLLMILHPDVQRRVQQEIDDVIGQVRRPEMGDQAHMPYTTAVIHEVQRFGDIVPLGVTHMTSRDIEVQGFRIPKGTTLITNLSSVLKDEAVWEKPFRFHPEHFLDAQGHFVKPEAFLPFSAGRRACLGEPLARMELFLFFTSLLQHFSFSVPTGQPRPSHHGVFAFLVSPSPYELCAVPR

CYP1A2 = target: T2, CYP1A2 (Homo sapiens, UniProt P05177); conditions: human liver microsomes, pH 7.4, probe tacrine
T2 sequence (P05177 1-516): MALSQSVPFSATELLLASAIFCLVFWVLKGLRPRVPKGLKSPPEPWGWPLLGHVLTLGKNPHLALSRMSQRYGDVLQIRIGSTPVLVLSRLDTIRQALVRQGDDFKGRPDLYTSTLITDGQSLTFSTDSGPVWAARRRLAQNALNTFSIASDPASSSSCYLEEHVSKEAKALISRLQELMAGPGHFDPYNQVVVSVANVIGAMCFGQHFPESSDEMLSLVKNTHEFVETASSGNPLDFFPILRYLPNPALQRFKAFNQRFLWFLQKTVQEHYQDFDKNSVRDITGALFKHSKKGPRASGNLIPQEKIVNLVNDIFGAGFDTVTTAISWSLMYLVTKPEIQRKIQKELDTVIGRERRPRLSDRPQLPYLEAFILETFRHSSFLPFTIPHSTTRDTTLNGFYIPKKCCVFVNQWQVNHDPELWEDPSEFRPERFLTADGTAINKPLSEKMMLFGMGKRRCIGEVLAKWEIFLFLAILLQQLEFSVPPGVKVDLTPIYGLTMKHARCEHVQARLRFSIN

effect on CYP2C8 activity (in words) (human CYP2C8)	IC50 at 8 min (CYP2C9) [µg/mL]	IC50 at 8 min (CYP2D6) [µg/mL]	IC50 at 8 min (CYP1A2) [µg/mL]	SMILES
unaffected				CC1(CO)C(O[C@@H]2O[C@H](C(=O)O)[C@@H](O)[C@H](O)[C@H]2O)CC[C@@]2(C)C1CC[C@]1(C)C2CC=C2[C@H]3CC(C)(C)[C@H](O)[C@@H](O)[C@]3(CO)[C@H](O)C[C@]21C (stereo partly shown) [DGA, deacylgymnemic acid]
	0.19 (≈ 0.457 µM)	0.56 (≈ 1.35 µM)	0.89 (≈ 2.14 µM)	Clc1ccc(COC(Cn2ccnc2)c2ccc(Cl)cc2Cl)c(Cl)c1 (stereo not shown) [MCZN, miconazole]
